Where a name gives a salt, the structure may show the parent alone.
Key:
Assay type in all cases: cell-based, human
[1] = test system: OE33P radio-sensitive oesophageal adenocarcinoma cells; experiment: Cell number after 24 hours drug treatment (crystal violet absorbance), OE33P; conditions: 10 μM
Procedure: OE33P radio-sensitive and OE33R radio-resistant oesophageal adenocarcinoma cells were used to test the effects of the compounds 11B HCl, […], 11B CC16 HCl, 11B 471 and 11B 268 on cell number. Cells were maintained in RPMI media supplemented with 10% foetal calf serum, penicillin (100 U/ml) and streptomycin (100 gig/ml). A total of 11.000 or 13,000 cells, in 100 μl media, were seeded per well in 24 well plates and left to incubate for 24 hours, with an additional 150 μl media added after 5 hours. The media was replaced with solutions containing 10 μM of 11B HCl, 11B CC11 HCl, 11B CC16 HCl, 11B 471, 11B 268 or fresh media as a control. Each drug had 6 replicates. After 24 hours of treatment, the cells were fixed with 1% glutaraldehyde for 15 minutes and then stained with crystal violet for 30 minutes. The plates were blotted and dried overnight. The cells were resuspended with 1% TritonX-100 and shaken for 15 minutes. The absorbance was read on a spectrophotometer at 590 nm.
OE33P radiosensitive and OE33R radioresistant cells were used to test the effects of the compound 11B_Z_HCl on toxicity. Cells were maintained in RPMI media supplemented with 10% foetal calf serum, penicillin (100 U/ml) and streptomycin (100 μg/ml). A total of 11,000 cells, in 100 μl media, were seeded per well in 24 well plates and left to incubate for 24 hours, with an additional 150 μl media added after 5 hours. The media was replaced with solutions containing 10 μM of 11B_Z_HCl or fresh media as a control. Each treatment had 6 replicates. After 24 hours of treatment, the cells were fixed with 1% glutaraldehyde for 15 minutes and then stained with crystal violet for 30 minutes. The plates were blotted and dried overnight. The cells were resuspended with 1% TritonX-100 and shaken for 15 minutes. The absorbance was read on a spectrophotometer at 590 nm.

[2] = test system: OE33P radio-sensitive oesophageal adenocarcinoma cells; experiment: Quantification of glycolysis (ECAR, Seahorse), OE33P; conditions: 10 μM, 24 hours
Procedure: (§1) OE33P radio-sensitive and OE33R radio-resistant oesophageal adenocarcinoma cells were used to test the effects of compounds 11B HCl, 11B CC11 HCl, 11B CC16 HCl, 11B 471 and 11B 268 on glycolysis. Cells were maintained in RPMI media supplemented with 10% foetal calf serum, penicillin (100 U/ml) and streptomycin (100 μg/ml). A total of 11,000 or 13,000 cells, in 100 μl media, were seeded per well in 24 well plates and left to incubate for 24 hours, with an additional 150 μl media added after 5 hours. The media was replaced with solutions containing 10 μM of 11B HCl, 11B CC1 HCl, 11B CC16 HCl, 11B 471, 11B 268 or fresh media as a control. Each drug had 6 replicates. After 24 hours of treatment, media was replaced with modified DMEM supplemented with 0.5 mM glucose. Rates of glycolysis were determined using Seahorse Biosciences metabolism technology. The media was disposed and the cells washed with PBS. The cells were fixed with 1% glutaraldehyde for 15 minutes and then stained with crystal violet for 30 minutes. The plates were blotted and dried overnight. The cells were resuspended with 1% TritonX-100 and shaken for 15 minutes. The absorbance was read on a spectrophotometer at 590 nm. Rates of glycolysis were then normalised to cell number.
as §1, with “radiosensitive” for “radio-sensitive and OE33R radio-resistant”, “the compound 11B_ZHCl” for “compounds 11B HCl, 11B CC11 HCl, 11B CC16 HCl, 11B 471 and 11B 268”, “11,000” for “11,000 or 13,000”, “11B_ZHCl” for “11B HCl, 11B CC1 HCl, 11B CC16 HCl, 11B 471, 11B 268”, “treatment” for “drug”, “number. No changes in ECAR were detected in OE33R treated cells.” for “number.”

[3] = test system: OE33P radiosensitive oesophageal adenocarcinoma cells; experiment: Quantification of oxidative phosphorylation (OCR, Seahorse), OE33P; conditions: 10 μM, 24 hours
Procedure: (§2) OE33P radiosensitive and OE33R radio-resistant oesophageal adenocarcinoma cells were used to test the effects of the compounds 11B HCl, 11B CC11 HCl, 11B CC16 HCl, 11B 471 and 11B 268 on oxidative phosphorylation. Cells were maintained in RPMI media supplemented with 10% foetal calf serum, penicillin (100 U/ml) and streptomycin (100 μg/ml). A total of 11,000-13,000 cells, in 100 μl media, were seeded per well in 24 well plates and left to incubate for 24 hours, with an additional 150 μl media added after 5 hours. The media was replaced with solutions containing 10 μM of 11B HCl, 11B CC11 HCl, 11B CC16 HCl, 11B 471, 11B 268 or fresh media as a control. Each drug had 6 replicates. After 24 hours of treatment, media was replaced with modified DMEM supplemented with 0.5 mM glucose. Rates of oxidative phosphorylation were determined using Seahorse Biosciences metabolism technology. The media was disposed and the cells washed with PBS. The cells were fixed with 1% glutaraldehyde for 15 minutes and then stained with crystal violet for 30 minutes. The plates were blotted and dried overnight. The cells were resuspended with 1% TritonX-100 and shaken for 15 minutes. The absorbance was read on a spectrophotometer at 595 nm. Rates of oxidative phosphorylation were then normalised to cell number.
(§3) OE33P radiosensitive and OE33R radioresistant oesophageal adenocarcinoma cells were used to test the effects of the compound 11B_Z_HCl on oxidative phosphorylation. Cells were maintained in RPMI media supplemented with 10%0/foetal calf serum, penicillin […]) and streptomycin (100 μg/ml). A total of 11,000 cells, in 100 μl media, were seeded per well in 24 well plates and left to incubate for 24 hours, with an additional 150 μl media added after 5 hours. The media was replaced with solutions containing 10 μM of 11B_Z_HCl or fresh media as a control. Each treatment had 6 replicates. After 24 hours of treatment, media was replaced with modified DMEM supplemented with 0.5 mM glucose. Rates of oxidative phosphorylation were determined using Seahorse Biosciences metabolism technology. Rates of oxidative phosphorylation were then normalised to cell number.

[4] = test system: OE33R radio-resistant oesophageal adenocarcinoma cells; experiment: Quantification of oxidative phosphorylation (OCR, Seahorse), OE33R; conditions: 10 μM, 24 hours
Procedure: as §2
as §3, with “Rates of oxidative phosphorylation were then normalised to cell number.” left out

SMILES | cell number, measured by % absorbance [1] | extracellular acidification rate (ECAR), a measure of glycolysis [2] | oxygen consumption rate (OCR), a measure of oxidative phosphorylation [3] | oxygen consumption rate (OCR), a measure of oxidative phosphorylation [4] | cell number, measured by % absorbance ([1]; HCl salt) | extracellular acidification rate (ECAR), a measure of glycolysis ([2]; HCl salt) | extracellular acidification rate (ECAR), a measure of glycolysis ([2]; listed as 11B_ZHCl, HCl salt) | oxygen consumption rate (OCR), a measure of oxidative phosphorylation ([3]; HCl salt) | oxygen consumption rate (OCR), a measure of oxidative phosphorylation ([4]; HCl salt)
Oc1ccccc1/C=C/c1ccc2ccccc2n1 [11B HCl] | did not significantly reduce cell number | significantly reduce | significantly reduce | significantly reduce |  |  |  |  | 
C/C(=C\c1ccccc1O)c1ccc2ccccc2n1.Cl [Compound 11B_CC11_HCl, (E)-2-(2-Quinolin-2-yl-propenyl)-phenol HCl salt] | did not significantly reduce cell number | significantly reduce | significantly reduce | significantly reduce |  |  |  |  | 
Cl.Oc1ccccc1/C=C\c1ccc2ccccc2n1 [Compound 11B_Z_HCl, (Z)-2-(2-(Quinolin-2-yl)vinyl) phenol HCl salt] |  |  |  |  | did not significantly reduce cell number | significantly reduces | Significantly Reduces | Significantly Reduces | Significantly Reduces

Source: patent US9815788B2, “Anti-angiogenic compounds” (University College Dublin National University of Ireland, …, priority 2012, dated 2017)
